In the supplement of paper PMC10307832:

Key:
Experiment in all cases: relative viability (nuclei count vs DMSO), 5 days (fraction); higher = more cells survive
[1] = compound: O=C(C[C@H]1NCCC[C@@H]1O)Cn1cnc2cc(Br)c(Cl)cc2c1=O (racemic) [Halofuginone] + CC1(C)CCC(c2ccc(Cl)cc2)=C(CN2CCN(c3ccc(C(=O)NS(=O)(=O)c4ccc(N[C@H](CCN5CCOCC5)CSc5ccccc5)c(S(=O)(=O)C(F)(F)F)c4)cc3)CC2)C1 [Navitoclax] (partner 0.5 µM)
Outline: (§1)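 Lung cancer cell lines in 1536-well plates got either a single drug or a fixed anchor-drug dose together with five library-drug doses (not always all listed) in √10 steps, by pin tool, on the day after seeding. Nuclei were counted after 5 days, and relative viability is the treated-to-vehicle ratio of nuclei counts. Values are medians of duplicate plates.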

Decitabine + Tozasertib = compound: Nc1ncn([C@H]2C[C@H](O)[C@@H](CO)O2)c(=O)n1 [Decitabine] + Cc1cc(Nc2cc(N3CCN(C)CC3)nc(Sc3ccc(NC(=O)C4CC4)cc3)n2)n[nH]1 [Tozasertib] (partner 0.1 µM)
Outline: as §1

Decitabine + Bortezomib = compound: Nc1ncn([C@H]2C[C@H](O)[C@@H](CO)O2)c(=O)n1 [Decitabine] + CC(C)C[C@H](NC(=O)[C@H](Cc1ccccc1)NC(=O)c1cnccn1)B(O)O [Bortezomib] (partner 0.002 µM)
Outline: as §1

Cediranib + Trametinib = compound: COc1cc2c(Oc3ccc4[nH]c(C)cc4c3F)ncnc2cc1OCCCN1CCCC1 [Cediranib] + CC(=O)Nc1cccc(-n2c(=O)n(C3CC3)c(=O)c3c(Nc4ccc(I)cc4F)n(C)c(=O)c(C)c32)c1 [Trametinib] (partner 0.02 µM)
Outline: as §1

| Cell Line | relative viability ([1]; first compound 0.001 µM) | relative viability ([1]; first compound 0.003162 µM) | relative viability ([1]; first compound 0.01 µM) | relative viability ([1]; first compound 0.03162 µM) | relative viability ([1]; first compound 0.1 µM) | relative viability (Decitabine + Tozasertib; first compound 0.04 µM) | relative viability (Decitabine + Tozasertib; first compound 0.1265 µM) | relative viability (Decitabine + Tozasertib; first compound 0.4 µM) | relative viability (Decitabine + Tozasertib; first compound 1.265 µM) | relative viability (Decitabine + Tozasertib; first compound 4 µM) | relative viability (Decitabine + Bortezomib; first compound 0.04 µM) | relative viability (Decitabine + Bortezomib; first compound 0.1265 µM) | relative viability (Decitabine + Bortezomib; first compound 0.4 µM) | relative viability (Decitabine + Bortezomib; first compound 1.265 µM) | relative viability (Decitabine + Bortezomib; first compound 4 µM) | relative viability (Cediranib + Trametinib; first compound 0.04 µM) | relative viability (Cediranib + Trametinib; first compound 0.1265 µM) | relative viability (Cediranib + Trametinib; first compound 0.4 µM) | relative viability (Cediranib + Trametinib; first compound 1.265 µM) | relative viability (Cediranib + Trametinib; first compound 4 µM) |
| --- | --- | --- | --- | --- | --- | --- | --- | --- | --- | --- | --- | --- | --- | --- | --- | --- | --- | --- | --- | --- |
| NCI-H2023 | 1.02 | 0.986 | 0.926 | 0.577 | 0.15 | 0.218 | 0.226 | 0.157 | 0.0961 | 0.122 | 0.628 | 0.61 | 0.206 | 0.206 | 0.155 | 0.592 | 0.585 | 0.565 | 0.591 | 0.905 |
| EBC-1 | 0.535 | 0.35 | 0.274 | 0.244 | 0.109 |  |  |  |  |  | 0.395 | 0.406 | 0.29 | 0.268 | 0.257 |  |  |  |  |  |
| NCI-H1666 | 1.1 | 0.885 | 0.962 | 1.01 | 0.419 | 0.514 | 0.577 | 0.615 | 0.502 | 0.517 | 0.723 | 0.726 | 0.545 | 0.625 | 0.569 | 0.87 | 0.655 | 0.838 | 0.844 | 0.877 |
| NCI-H1975 | 1.2 | 1.08 | 1.1 | 0.554 | 0.205 | 0.279 | 0.239 | 0.132 | 0.152 | 0.129 | 0.227 | 0.268 | 0.178 | 0.168 | 0.169 | 0.377 | 0.388 | 0.338 | 0.373 | 0.337 |
| NCI-H2170 | 0.631 | 0.724 | 0.595 | 0.699 | 0.387 | 0.447 | 0.472 | 0.347 | 0.298 | 0.217 |  |  |  |  |  | 0.993 |  | 0.935 | 0.81 | 0.986 |
| NCI-H1355 | 0.929 | 0.949 | 0.902 | 1.08 | 0.715 | 0.315 | 0.334 | 0.263 | 0.224 | 0.224 | 0.826 | 0.583 | 0.517 | 0.305 | 0.297 | 0.401 | 0.432 | 0.417 | 0.439 | 0.464 |
| NCI-H1648 |  |  |  |  |  | 0.519 | 0.402 | 0.321 | 0.172 | 0.184 |  |  |  |  |  | 0.442 | 0.499 | 0.539 | 0.462 | 0.495 |
| A549 | 1.33 | 1.27 | 1.02 | 0.676 | 0.0879 |  |  |  |  |  |  |  |  |  |  |  |  |  |  |  |
| SK-MES-1 | 1.22 | 1.16 | 1.18 | 0.67 | 0.197 | 0.698 | 0.608 | 0.332 | 0.238 | 0.255 |  |  |  |  |  | 0.606 | 0.553 | 0.52 | 0.527 | 0.562 |
| EKVX | 1.06 | 0.971 | 0.984 | 0.905 | 0.797 | 0.283 | 0.266 | 0.247 | 0.166 | 0.148 | 0.71 | 0.776 | 0.798 | 0.383 | 0.381 | 0.283 | 0.4 | 0.343 |  | 0.402 |
| RERF-LC-KJ | 0.987 | 1.11 | 1.05 | 0.905 | 0.699 | 0.511 | 0.446 |  | 0.309 | 0.379 | 1.05 | 0.931 | 0.525 | 0.824 | 0.779 | 0.875 | 0.902 | 0.839 | 0.762 | 0.985 |
| NCI-H1755 | 0.958 | 1.01 | 0.995 | 1.01 | 0.596 | 0.525 | 0.538 | 0.473 | 0.372 | 0.357 | 0.814 | 0.877 | 0.808 | 0.492 | 0.381 | 0.8 | 0.804 | 0.709 | 0.81 | 0.783 |
| NCI-H661 |  |  |  |  |  | 0.345 | 0.33 | 0.341 | 0.318 | 0.348 | 0.688 | 0.61 | 0.459 | 0.339 | 0.332 | 0.609 | 0.751 | 0.567 | 0.522 | 0.61 |
| LOU-NH91 | 0.746 | 0.705 | 0.719 | 0.719 | 0.536 | 0.444 | 0.606 | 0.522 | 0.464 | 0.512 | 0.412 | 0.471 | 0.436 | 0.512 | 0.523 | 0.841 | 0.808 | 0.796 | 0.751 | 0.786 |
| LXF-289 | 0.94 | 0.965 | 0.859 | 0.973 | 0.865 | 0.151 | 0.162 | 0.119 | 0.0869 | 0.0957 | 0.775 | 0.714 | 0.503 | 0.347 | 0.324 | 0.671 |  | 0.676 | 0.651 | 0.632 |
| HCC-44 | 0.949 | 1.02 | 0.968 | 1.02 | 0.568 |  | 1.01 | 0.174 | 0.457 | 0.382 | 0.821 | 0.898 | 0.536 | 0.602 | 0.548 | 1.2 | 0.907 | 1.1 | 1.05 | 1.07 |
